The test system of the experiment is rat peritoneal neutrophils. The experiment is described as follows: Inhibition of ionophore-stimulated release of free arachidonic acid from [14C]-arachidonic acid pre-labelled rat peritoneal neutrophils. The format is cell-based. The following applies: read-out: IC50, concentration required to inhibit by 50% compared to controls the release of radiolabelled products into supernatant liquid. The text has this: The inhibition of ionophore-stimulated release of free arachidonic acid from [^14 C]-arachidonic acid pre-labelled rat peritoneal neutrophils was studied using modifications of the method of Ahnfelt-Ronne and Arrigoni-Martelli [Biochemical Pharmacol., (1982) Vol. 31, p. 2619]. The results below show the micromolar concentrations of test compound required to inhibit, by 50% compared to controls, the release of radiolabelled products into supernatant liquid (IC50 -μM).
As to `C=C(C)C(=O)c1nc2nc(SC)c(CC)c(C)n2c1Br` [Example 1, 1-(3-bromo-6-ethyl-5-methyl-7-methylthio-imidazo[1,2-a]pyrimidin-2-yl)-2-methyl-2-propen-1-one], the IC50 was 6.8 µM.
As for `C=C(C)C(=O)c1nc2nc(OC)c(CC)c(C)n2c1Br` [Example 2, (3-bromo 6-ethyl 7-methoxy 5-methylimidazo [1,2-a]pyrimidin-2-yl) isopropenyl methanone], the IC50 came out at 17 µM.
For `C=C(C)C(=O)c1nc2nc(OC)c(CC)c(C)n2c1Cl` [Example 3, (3-chloro 6-ethyl 7-methoxy 5-methylimidazo [1,2-a]pyrimidin-2-yl) isopropenyl methanone], the IC50 was 21 µM.
With `C=C(C)C(=O)c1nc2nc(OC)cc(C)n2c1Br` [Example 4] the figure was 7.4 µM; with `C=CC(=O)c1nc2nc(OC)c(CC)c(C)n2c1Br` [Example 5, (3-bromo 6-ethyl 7-methoxy 5-methylimidazo [1,2-a]pyrimidin-2-yl) ethenyl methanone], 1.7 µM; with `C=C(C)C(=O)c1cn(-c2ccc(CC)cc2)c(SC)n1` [Example 6, [1-(4-ethylphenyl) 2-imidazol-4-yl] isopropenyl methanone], 3.8 µM.
Consider `C=C(C)C(=O)c1nc(SC)n(-c2ccc(CC)cc2)c1Br` [Example 7, [1-(4-ethylphenyl) 5-bromo 2-thiomethylimidazol-4-yl] isopropenyl methanone], for which the IC50 worked out at 2.5 µM.
With `C=C(C)C(=O)c1nc(SC)n(-c2ccc(OC)cc2)c1Br` [Example 8, [1-(4-methoxyphenyl) 5-bromo 2-thiomethylimidazol-4-yl] isopropenyl methanone] the figure was 7.2 µM.
With `C=C(C)C(=O)c1nc(SC)n(-c2ccc(OC)cc2)c1Cl` [Example 9, [1-(4-methoxyphenyl) 5-chloro 2-thiomethylimidazol-4-yl] isopropenyl methanone] the figure was 9.1 µM; with `C=C(C)C(=O)c1nc(SC)n(-c2ccc(C)cc2)c1Br` [Example 10, [1-(4-methylphenyl) 5-bromo 2-thiomethylimidazol-4-yl] isopropenyl methanone], 10 µM.
With `C=C(C)C(=O)c1nc(SC(C)C)n(-c2ccc(C)cc2)c1Br` [Example 11, [1-(4-methylphenyl) 5-bromo 2-thioisopropylimidazol-4-yl] isopropenyl methanone] the figure was 3.7 µM; with `C=C(C)C(=O)c1nc(SC)n(-c2ccc(F)cc2)c1Br` [Example 12, [1-(4-fluorophenyl) 5-bromo 2-thiomethylimidazol-4-yl] isopropenyl methanone], 15 µM.
For the compound `C=CC(=O)c1nc(SC)n(-c2ccc(OC)cc2)c1Br` [Example 13, [1-(4-methoxyphenyl) 5-bromo 2-thiomethylimidazol-4-yl] ethenyl methanone], the IC50 was determined as 2.3 µM.
The figure for `C=C(C)C(=O)c1nc(SC)n(-c2ccc(O)cc2)c1Br` [Example 14, [5-bromo-1-(4-hydroxyphenyl)-2-methylthioimidazol-4-yl]-2-methyl-2-propen-1-one] is > 10 µM; for `C=C(C)C(=O)c1nc(SC(C)C)n(CC)c1Br` [Example 15, (1-ethyl 5-bromo 2-thioisopropyl imidazol-4-yl) isopropenyl methanone] it is 17 µM; for `C=C(C)C(=O)c1nc([S+]([O-])C(C)C)n(-c2ccc(CC)cc2)c1Cl` (stereo not drawn) [Example 16, [5-chloro-1-(4-ethylphenyl)-2-(prop-2-ylsulfinyl)-imidazol-4-yl]-2-methyl-2-propen-1-one] it is 4.4 µM.
In the case of `CCc1c(OC)nc2nc(C(=O)C#Cc3ccccc3)cn2c1C` [Example 18, (6-ethyl 7-methoxy 5-methylimidazo [1,2-a]pyrimidin-2-yl) phenylethynyl methanone], the IC50 amounted to 12 µM.
With `CCc1c(OC)nc2nc(C(=O)C#CC(C)(C)C)cn2c1C` [Example 19, 1-(6-ethyl 7-methoxy 5-methylimidazo [1,2-a]pyrimidin-2-yl) (3,3-dimethylbut-1-ynyl) methanone] the figure was 16 µM; with `CCc1c(OC)nc2nc(C(=O)C#CC(C)(C)C)c(Br)n2c1C` [Example 20, (3-bromo 6-ethyl 7-methoxy 5-methylimidazo [1,2-a]pyrimidin-2-yl) (3,3-dimethylbut-1-ynyl) methanone], 4.2 µM.
With `CCc1c(OC)nc2nc(C(=O)C#Cc3ccccc3)c(Br)n2c1C` [Example 21, (3-bromo 6-ethyl 7-methoxy 5-methylimidazo [1,2-a]pyrimidin-2-yl) (2-phenylethy-1-yl) methanone] the figure was 1.5 µM.
For `CCc1c(OC)nc2nc(C(=O)C#CCO)c(Br)n2c1C` [Example 22, 1-(3-bromo-6-ethyl-7-methoxy-5-methyl-imidazo[1,2-a]pyrimidin-2-yl)-4-hydroxy-2-butyn-1-one], the IC50 stood at 59 µM.
In the case of `CCc1c(OC)nc2nc(C(=O)C#CCO)cn2c1C` [Example 23, 1-(6-ethyl-7-methoxy-5-methylimidazo[1,2-a]pyrimidin-2-yl)-4-hydroxy-2-butyn-1-one], the IC50 was determined as 46 µM.
Take `CC#CC(=O)c1nc2nc(OC)c(CC)c(C)n2c1Br` [Example 24, (3-bromo 6-ethyl 7-methoxy 5-methylimidazo [1,2-a]pyrimidin-2-yl) (propyn-1-ynyl) methanone]: the IC50 was 7.2 µM.
The figure for `C=C(C)C(=O)c1nc2ccccn2c1Br` [Example 25, (3-bromoimidazo [1,2-a]pyridin-2-yl) isopropenyl methanone (chlorhydrate)] is 28 µM.
For the compound `C=C(C)C(=O)c1cn2ccccc2n1` [Example 26, (imidazo [1,2-a]pyridin-2-yl) isopropenyl methanone], the IC50 is > 100 µM.
The figure for `O=C(C#Cc1ccccc1)c1cn2ccccc2n1` [Example 27, (imidazo [1,2-a]pyridin-2-yl) (2-phenylethyn-1-yl) methanone] is 41 µM; for `O=C(C#Cc1ccccc1)c1nc2ccccn2c1Br` [Example 28, 3-bromoimidazo [1,2-a] pyridin-2-yl (2-phenylethyn-1-yl) methanone] it is 5.2 µM.
